Legend:
[1] = molecular target: AMP-activated protein kinase, AMPK (Homo sapiens) (UniProt P54646+O43741+P54619+Q9UGJ0+Q9Y478+Q13131+Q9UGI9); assay: Inhibition of AMPK in human HeLa cells assessed as kinase phosphorylation level at 5 uM incubated for 6 hrs by SDS-PAGE based chemiluminescence assay; assay type: cell-based; set-up: scale not given: the % may be the effect or the level left
FaDu [2] = assay: Cytotoxic activity against human FADU cancer stem cells incubated for 72 hrs by Cell-titer-Glo luminescence assay; assay type: functional, cell-based
ACHN [3] = assay: Cytotoxic activity against human ACHN cancer stem cells incubated for 72 hrs by Cell-titer-Glo luminescence assay; assay type: functional, cell-based
[4] = molecular target: T1, Ribosomal protein S6 kinase (Homo sapiens) (UniProt P51812+Q9UBS0+O75676+Q15349+O75582+P23443+Q9UK32+Q15418); assay: Inhibition of RPS6 kinase in human HeLa cells assessed as p-RPS6 Ser240/244 phosphorylation level at 5 uM incubated for 6 hrs by SDS-PAGE based chemiluminescence assay; assay type: cell-based; set-up: scale not given: the % may be the effect or the level left
[5] = molecular target: T1, Ribosomal protein S6 kinase (Homo sapiens); assay: Inhibition of RPS6 kinase in human HeLa cells assessed as p-RPS6 Ser235/236 phosphorylation level at 5 uM incubated for 6 hrs by SDS-PAGE based chemiluminescence assay; assay type: cell-based; set-up: scale not given: the % may be the effect or the level left
A549 [6] = assay: Cytotoxic activity against human A549 cancer stem cells incubated for 72 hrs by Cell-titer-Glo luminescence assay; assay type: functional, cell-based; conditions: A549, 72 h
FaDu [7] = assay: Cytotoxic activity against human FADU bulk cells incubated for 72 hrs by Cell-titer-Glo luminescence assay; assay type: functional, cell-based
ACHN [8] = assay: Cytotoxic activity against human ACHN bulk cells incubated for 72 hrs by Cell-titer-Glo luminescence assay; assay type: functional, cell-based
A549 [9] = assay: Cytotoxic activity against human A549 bulk cells incubated for 72 hrs by Cell-titer-Glo luminescence assay; assay type: functional, cell-based; conditions: A549, 72 h

Structure (SMILES) | Activity [1] | Activity [4] | Activity [5] | IC50 (FaDu [2]) | IC50 (ACHN [3]) | IC50 (A549 [6]) | IC50 (FaDu [7]) | IC50 (ACHN [8]) | IC50 (A549 [9])
Cc1nc(-c2ccccc2)oc1-c1ccc2c(c1)NC(=O)/C2=C\c1[nH]c(C)c(C(=O)N2CCN(C)CC2)c1C | 103% | 21% | 2% | 1.6 µM | 0.5 µM | – | – | – | –
Cc1cc(C)c(/C=C2\C(=O)Nc3ccc(-c4csc(C5CCNCC5)n4)cc32)[nH]1 | 47% | 76% | 76% | 0.43 µM | 0.09 µM | 0.88 µM | 1.62 µM | 1.56 µM | 1.29 µM
COc1ccc(-c2cccc3c2NC(=O)/C3=C\c2[nH]c(C)cc2C)cn1 | 91% | 59% | 63% | – | – | 43.4 µM | 28.4 µM | 28.3 µM | 24.4 µM
COc1ncc(-c2cccc3c2/C(=C/c2[nH]c(C)cc2C)C(=O)N3)cn1 | 145% | 75% | 77% | – | – | – | 35.3 µM | 28.1 µM | 21.1 µM
Cc1cc(C)c(/C=C2\C(=O)Nc3cccc(-c4cncnc4)c32)[nH]1 | 198% | 43% | 44% | – | – | – | 39.7 µM | 16.8 µM | 16.3 µM
Cc1cc(C)c(/C=C2\C(=O)Nc3ccc(-c4csc(C5CCCNC5)n4)cc32)[nH]1 (stereo unspecified) | 69% | 34% | 6% | 0.48 µM | 0.05 µM | 1.7 µM | 1.58 µM | 1.64 µM | 1.34 µM
Cc1cc(C)c(/C=C2\C(=O)Nc3cccc(-c4ccncc4)c32)[nH]1 | 75% | 47% | 50% | 12.2 µM | 16.2 µM | 30.3 µM | 19.6 µM | 19.8 µM | 13.1 µM
Cc1cc(C)c(/C=C2\C(=O)Nc3ccc(-c4ccc5cn[nH]c(=O)c5c4)cc32)[nH]1 | 39% | 24% | 1% | 2.96 µM | 0.26 µM | 3 µM | 2.55 µM | 1.12 µM | 1.4 µM
CCN(CC)CCNC(=O)c1c(C)[nH]c(/C=C2\C(=O)Nc3c2cccc3-c2cncc(C)c2)c1C | 50% | 59% | 47% | 2.2 µM | 1.97 µM | 2.23 µM | 6.23 µM | 1.68 µM | 3.36 µM
Cc1[nH]c(/C=C2\C(=O)Nc3cc(-c4csc(-c5ccccc5)n4)ccc32)c(C)c1C(=O)N1CCN(C)CC1 | 150% | 73% | 33% | 1.03 µM | 0.39 µM | 1.22 µM | 4.74 µM | 11.6 µM | 26.3 µM
Cc1cc(C)c(/C=C2\C(=O)Nc3cccc(-c4ccc5cc[nH]c5c4)c32)[nH]1 | 27% | 35% | 36% | – | 18.9 µM | 20.2 µM | 16.4 µM | 20.4 µM | 16.6 µM
Cc1[nH]c(/C=C2\C(=O)Nc3c2cccc3-c2csc(-c3ccccc3)n2)c(C)c1C(=O)N1CCN(C)CC1 | 122% | 32% | 2% | 2.99 µM | 0.5 µM | 4.19 µM | 5.41 µM | 15.2 µM | 5.41 µM
Cc1cncc(-c2cccc3c2NC(=O)/C3=C\c2[nH]c(C)cc2C)c1 | 103% | 75% | 74% | – | 32 µM | 32 µM | 26.4 µM | 16 µM | 21.2 µM
CCN(CC)CCNC(=O)c1c(C)[nH]c(/C=C2\C(=O)Nc3c2cccc3-c2cccnc2OC)c1C | 31% | 54% | 48% | 1.92 µM | 2.71 µM | 6.87 µM | 3.81 µM | 3.64 µM | 5.32 µM
Cc1[nH]c(/C=C2\C(=O)Nc3ccc(-c4csc(-c5ccccc5)n4)nc32)c(C)c1C(=O)NCCN1CCCC1 | 41% | 51% | 13% | 0.17 µM | 0.4 µM | 2.47 µM | 1.73 µM | 1.52 µM | 1.43 µM
COC(=O)c1c(C)[nH]c(/C=C2\C(=O)Nc3ccc(-c4csc(C5CCNCC5)n4)cc32)c1C | 79% | 83% | 70% | 0.22 µM | – | 2.48 µM | 0.69 µM | 0.52 µM | 0.7 µM
COc1ncc(-c2cccc3c2NC(=O)/C3=C\c2[nH]c(C)cc2C)cn1 | 96% | 54% | 57% | – | 17.5 µM | 34.7 µM | 20.8 µM | 21.9 µM | 17.7 µM

The next lines start with results.

Activity [1] | Activity [4] | Activity [5] | Structure (SMILES) | IC50 (FaDu [2]) | IC50 (ACHN [3]) | IC50 (A549 [6]) | IC50 (FaDu [7]) | IC50 (ACHN [8]) | IC50 (A549 [9])
56% | 65% | 60% | CCN(CC)CCNC(=O)c1c(C)[nH]c(/C=C2\C(=O)Nc3c2cccc3-c2ccncc2)c1C | 4.41 µM | 4.99 µM | 12.6 µM | 6.74 µM | 6.39 µM | 6.85 µM
118% | 82% | 61% | CCN(CC)CCNC(=O)c1c(C)[nH]c(/C=C2\C(=O)Nc3ccc(-c4ccc(-c5ccccc5)cn4)cc32)c1C | 4.81 µM | 0.65 µM | 3.79 µM | 2.72 µM | 5.38 µM | 2.02 µM
47% | 88% | 79% | CCN(CC)CCNC(=O)c1c(C)[nH]c(/C=C2\C(=O)Nc3ccc(-c4csc(-c5ccc(O)cc5)n4)cc32)c1C | 1.85 µM | 0.5 µM | 6.99 µM | 0.7 µM | 1.38 µM | 3.06 µM
22% | 26% | 4% | CCN(CC)CCNC(=O)c1c(C)[nH]c(/C=C2\C(=O)Nc3ccc(-c4n[nH]c5ccccc45)cc32)c1C | 10.2 µM | 1.31 µM | 5.65 µM | 2.85 µM | 4.31 µM | 3.02 µM
12% | 64% | 21% | CCN(CC)CCNC(=O)c1c(C)[nH]c(/C=C2\C(=O)Nc3ccc(-c4nc(-c5ccccc5)cs4)cc32)c1C | 0.27 µM | – | 4.28 µM | 1.18 µM | 1.64 µM | 4.74 µM
8% | 23% | 2% | CCN(CC)CCNC(=O)c1c(C)[nH]c(/C=C2\C(=O)Nc3cccc(-c4ccc(-c5ccccc5)cc4)c32)c1C | 0.28 µM | 0.33 µM | 4.32 µM | 1.11 µM | 1.6 µM | 5.09 µM
144% | 32% | 2% | CCN(CC)CCNC(=O)c1c(C)[nH]c(/C=C2\C(=O)Nc3c2cccc3-c2csc(-c3ccccc3)n2)c1C | 1.26 µM | 0.28 µM | 1.57 µM | 3.75 µM | 3.2 µM | 1.96 µM
105% | 36% | 2% | Cc1[nH]c(/C=C2\C(=O)Nc3cccc(-c4ccc(-c5ccccc5)cc4)c32)c(C)c1C(=O)N1CCN(C)CC1 | 1.21 µM | – | 5.76 µM | 7.56 µM | 14.9 µM | 21.5 µM
39% | 44% | 29% | CCN(CC)CCNC(=O)c1c(C)[nH]c(/C=C2\C(=O)Nc3c2cccc3-c2ccc3cc[nH]c3c2)c1C | 2.06 µM | 1.86 µM | 3.9 µM | 2.77 µM | 3 µM | 2.91 µM
8% | 31% | 1% | CCN(CC)CCNC(=O)c1c(C)[nH]c(/C=C2\C(=O)Nc3ccc(-c4cccnc4)cc32)c1C | 4.31 µM | 1.06 µM | 3.9 µM | 2.82 µM | 1.31 µM | 0.84 µM
151% | 43% | 4% | CCN(CC)CCNC(=O)c1c(C)[nH]c(/C=C2\C(=O)Nc3cc(-c4oc(-c5ccccc5)nc4C)ccc32)c1C | 8.09 µM | 1.65 µM | – | 3.55 µM | 2.97 µM | 7.49 µM
35% | 42% | 5% | CCN(CC)CCNC(=O)c1c(C)[nH]c(/C=C2\C(=O)Nc3ccc(-c4csc(-c5ccccc5)n4)nc32)c1C | 0.11 µM | 0.97 µM | 0.62 µM | 1.37 µM | 1.37 µM | 1.74 µM
144% | 64% | 19% | CCN(CC)CCNC(=O)c1c(C)[nH]c(/C=C2\C(=O)Nc3ccc(-c4ccc(-c5ccccc5)o4)cc32)c1C | 1.41 µM | 0.25 µM | 8.25 µM | 3.09 µM | 3.66 µM | 4.3 µM
